Patent US20100158897A1, “PAI-1 MODULATORS FOR THE TREATMENT OF OCULAR DISORDERS” (ALCON RESEARCH, LTD., priority 2006, published 2010)

Experiments:
PAI-1 [1] = experiment: PAI-1 ELISA: effect on TGFβ2-induced total PAI-1 protein in HTM cell supernatants; assay type: cell-based, human; conditions: TGFβ2 5 ng/mL, 24 h
Procedure: FIGS. 9-11 present graphs showing the effect of cilostazol, 3,4-dehydro cilostazol, and cilostamide on TGFβ2-induced (5 ng/mL; 24 h) total PAI-1 protein in supernatants from human trabecular meshwork (HTM) cell lines. Cilostazol was tested against three different HTM cell lines (GTM, NTM470-05, and GTM191-04).
(§1) Human TM cell culture: Human TM cells were isolated from post-mortem human donor tissue, characterized, and cultured as previously described. Generation and characterization of the transformed (GTM-3) cell line was also as previously described (Pang et al., Preliminary characterization of a transformed cell strain derived from human trabecular meshwork., Curr. Eye Res., Vol. 13:51-63, 1994.)
(§2) PAI-1 ELISA: 24-well plates of TM cell cultures were serum-deprived for 24 h followed by an additional 24 h (or as indicated) incubation with TGFβ2 in a serum-free medium. Aliquots of supernatants from the treated cultures were quantified for secreted PAI-1 content by means of human PAI-1 ELISA kit (American Diagnostica).

[2] = cited from earlier work
[3] = test system: optic nerve head and retina; conditions: in vivo; cited from earlier work
[4] = test system: intraocular pressure (IOP); experiment: Ad.TGFβ2-induced ocular hypertension in mice, topical ocular administration; assay type: in vivo; conditions: conscious mice, rebound tonometer
Procedure: FIGS. 12a-12b are graphs showing the effect of topical ocular administration of various concentrations of cilostazol compared to control on Ad.TGFβ2-induced ocular hypertension in mice. Ad.TGFβ2 viral vector was injected on Day 0. Dosing with Cilostazol or vehicle was performed on the indicated days (denoted by horizontal bars). Intraocular pressure (IOP) was monitored in conscious mice using a rebound tonometer.

PAI-1 [5] = conditions: non-ocular tissues of rats; cited from earlier work
retinal ganglion cells = conditions: post-axotomy; cited from earlier work
[6] = test system: human TM cells (GTM-3, GTM730); experiment: TM cell adhesion to vitronectin substrate (InnoCyte ECM Cell Adhesion Assay); assay type: cell-based; conditions: TGFβ2 5 ng/mL, 2 hr, GTM-3 and GTM730 cells
Procedure: as §1
TM cell adhesion: TM cell adhesion was determined by means of InnoCyte ECM Cell Adhesion Assay (Calbiochem). TM cells (20,000/well; serum-free medium) were plated onto a vitronectin-coated 96-well plate. Test agents were then added, followed by incubation in a cell culture incubator for the times indicated. Non-adherent cells were then removed by decantation and gentle wash of the wells with PBS. Relative cell attachment was determined by means of fluorescent dye (calcein-AM) uptake.

PAI-1 [7] = experiment: PAI-1 ELISA: TGFβ2 effect on PAI-1 levels in GTM-3 cell supernatants; assay type: cell-based, human; conditions: GTM-3 cells
Procedure: PAI-1 mediated effects may contribute to the previously observed TGFβ2-mediated accumulation of extracellular matrix materials in various tissues, including TM tissues. […] TGFβ2-treatment results in both concentration-dependent and time-dependent accumulation of PAI-1 in TM cell supernatants (FIGS. 1 and 2). PAI-1 levels increase gradually in response to TGFβ2, reaching a constant level at approximately 24 h post-treatment.
as §1, §2

O=c1ccc2cc(OCCCCc3nnnn3C3CCCCC3)ccc2[nH]1 [3,4-dehydro cilostazol, 3,4-dehydro-cilostazol]
effect on TGFβ2-induced total PAI-1 protein in supernatants (PAI-1 [1]; GTM-3 HTM cells, FIGS. 10-11): dose-dependent inhibitory effect | share of total activity attributed to cilostazol ([2]; may account for): ≥ 50% | activity relative to cilostazol ([2]; reportedly): 4-7 fold

CN(C(=O)CCCOc1ccc2[nH]c(=O)ccc2c1)C1CCCCC1 [cilostamide, Cilostamide]
effect on TGFβ2-induced total PAI-1 protein in supernatants (PAI-1 [1]; GTM-3 HTM cells, FIGS. 10-11): dose-dependent inhibitory effect

O=C1CCc2cc(OCCCCc3nnnn3C3CCCCC3)ccc2N1 [cilostazol, Cilostazol]
blood flow to the optic nerve head and retina [3]: enhance blood flow | effect on TGFβ2-induced total PAI-1 protein in supernatants (PAI-1 [1]; three HTM cell lines (GTM, NTM470-05, GTM191-04), FIGS. 9a-9c): dose-dependent inhibitory effect | IOP-lowering effect relative to control (Maxidex vehicle) ([4]; 0.3% cilostazol formulation): substantial IOP-lowering effects | IOP-lowering effect relative to control (Maxidex vehicle) ([4]; 1.0% cilostazol formulation): substantial IOP-lowering effects | TGFβ2 and PAI-1 protein expression and PAI-1 activity (PAI-1 [5]): suppresses | survival of retinal ganglion cells (retinal ganglion cells): increase the survival of retinal ganglion cells

TGFβ2: cytokine transforming growth factor β2
effect on TM cell adhesion compared to controls [6]: did not experience measurable loss of adhesion | time to constant PAI-1 level post-treatment (PAI-1 [7]; TGFβ2 5 ng/mL): approximately 24 h | PAI-1 content in trabecular meshwork cell cultures (PAI-1 [7]; concentration- and time-dependent): increases the PAI-1 content
